Experimental data from ChEMBL document CHEMBL3046410, “Antioxidant activities and transition metal ion chelating studies of some hydroxyl Schiff base derivatives” (Med Chem Res, 2012).
Active and inactive are the calls of the source. No cut-off for these calls is given here.

Columns and labels:
[1] = Antioxidant activity assessed as Cu2+ quenching activity; assay type: functional
[2] = test system: Radical scavenging activity; assay: Antioxidant activity assessed as inhibition of DPPH free radical; assay type: functional
[3] = Antioxidant activity assessed as inhibition of ABTS free radical; assay type: functional
[4] = Antioxidant activity assessed as Fe2+ quenching activity; assay type: functional
[5] = Binding affinity to Cu2+; assay type: physicochemical
[6] = Binding affinity to Fe2+
[7] = Antioxidant activity assessed as Cu2+ chelating activity by fluorescence spectroscopy; assay type: functional
[8] = Antioxidant activity assessed as Fe2+ chelating activity by fluorescence spectroscopy; assay type: functional

Row | Structure (SMILES) | KSV [1] | IC50 [2] [µM] | IC50 [3] [µM] | KSV [4] | Ka [5] | Ka [6] | Activity [7] | Activity [8]
1 | Oc1cccc(/N=C/c2ccccc2O)c1 | 1.1 ×10⁵ /M | 407 | 3.68 | 2.61 ×10⁴ /M | 3.02 ×10³ /M | 3.21 ×10³ /M | – | –
2 | Oc1ccc(/N=C/C=C/c2ccccc2)cc1 | 2.49 ×10³ /M | 399 | 4.93 | 6.6 ×10³ /M | 1.45 ×10⁴ /M | 2.47 ×10⁴ /M | – | –
3 | Oc1ccc(/N=C/c2ccco2)cc1 | 1.17 ×10³ /M | 50.2 | 6.14 | 0.9 ×10³ /M | 0.85 ×10³ /M | 1.81 ×10³ /M | – | –
4 | Oc1ccccc1/C=N/c1ccccc1O | 6.07 ×10⁴ /M | 25 | 5.16 | 6.7 ×10⁴ /M | 1.26 ×10⁴ /M | 6.48 ×10³ /M | Active | Active
5 | Oc1cccc(/N=C/c2ccccc2)c1 [3-(BENZYLIDENEAMINO)PHENOL] | 5.2 ×10³ /M | 466 | 33.5 | 7.03 ×10³ /M | 1.39 ×10⁴ /M | 1.47 ×10⁴ /M | – | –
6 | CN(C)c1ccc(/C=N/c2ccccc2O)cc1 | 1.53 ×10⁴ /M | 10.8 | 7.07 | 5.19 ×10³ /M | 2.36 ×10⁴ /M | 7.3 ×10⁴ /M | – | –
7 | Oc1ccc(/N=C/c2ccccc2)cc1 [4-(BENZYLIDENEAMINO)PHENOL] | 3.49 ×10³ /M | 71.5 | 6.03 | 4.09 ×10³ /M | 3.17 ×10³ /M | 1.62 ×10⁴ /M | – | –
8 | Cc1cc(C(C)(C)C)c(O)c(C(C)(C)C)c1 [BUTYLATED HYDROXYTOLUENE] | – | 65.8 | 37 | – | – | – | – | –
9 | CN(C)c1ccc(/C=N/c2ccc(O)cc2)cc1 | 2.69 ×10⁴ /M | 20.8 | 4.16 | 7.4 ×10³ /M | 3.05 ×10³ /M | 5.03 ×10³ /M | – | –
10 | Oc1cccc(/N=C/C=C/c2ccccc2)c1 | 2.8 ×10³ /M | 143 | 3.99 | 8.91 ×10³ /M | 3.51 ×10³ /M | 6.25 ×10³ /M | – | –
11 | Oc1ccc(/N=C/c2ccccc2O)cc1 | 7.21 ×10⁴ /M | 107 | 4.68 | 1.43 ×10⁵ /M | 4.43 ×10³ /M | 9.67 ×10³ /M | – | –
